Patent EP0630648A1, “Use of acyl L-carnitine gamma-hydroxybutyrate for the treatment of drug addiction” (Sigma-Tau Industrie Farmaceutiche Riunite S.p.A., priority 1993, dated 1994)
Marks after values point to notes of the source that are not given here.

Experiments:
[1] = tested on: male Wistar rats; test: Hot-plate test: onset of habituation to the analgesic action of morphine; format: in vivo; conditions: for mean latency: after 15 days of daily morphine, substance 100 mg/kg i.p., morphine 10 mg/kg i.p., plate 51°C
Method: Morphine addiction was induced in the rats by daily injections for a period of 15 days.
Five different groups of animals also received saline solution, VCGB, GHB, LAC or VC (100 mg/kg i.p.), respectively.

[2] = tested on: male Wistar rats; test: Withdrawal syndrome due to naloxone administration in morphine-treated rats; format: in vivo; conditions: morphine for 10 days; for Weight loss: mean loss of body weight 1 hour after naloxone injection (1 mg/kg subcutaneous); for Latency of stereotype jumps: then naloxone 1 mg/kg subcutaneous, cut-off time 900 sec.
Method: After repeated treatment with morphine for a period of 10 days, the rats were all weighed and administered naloxone (1 mg/kg dissolved in saline solution) by subcutaneous injection. The resulting withdrawal syndrome was assessed by measuring the latency of onset of "stereotype jumps" from a circular platform measuring 35 cm in diameter and 70 cm in height. A cut-off time of 900 sec. was used. In 5 groups of animals, naloxone administration was combined with administration of saline, VCGB, GHB, LAC and VC, respectively.
The body weight of the animals was then measured again 1 hour after naloxone injection and the mean loss of body weight was calculated for each group of animals treated.

[3] = tested on: male Wistar rats; test: Heroin self-administration behaviour in rats; conditions: 100 mg/kg daily intraperitoneal; for number of heroin self-administrations: in the space of 3 hours

SMILES | mean latency ([1]; T 0) [s] | mean latency ([1]; T 30) | mean latency ([1]; T 240) | Weight loss [2] [g] | Latency of stereotype jumps [2] [s] | number of heroin self-administrations ([3]; 3rd day) | number of heroin self-administrations ([3]; 4th day) | number of heroin self-administrations ([3]; 5th day) | effect on habituation to morphine-induced analgesia (in words) ([1]; summary of the table, 100 mg/kg i.p.) | effect on number of heroin self-administrations (in words) ([3]; summary of the table)
O=C(O)CCCO [GHB, gamma-hydroxybutyric acid] | 5.5 | 13.0* sec. | 6.0 s | 15.5 ± 0.6 | 451 ± 63 | 7.5 ± 0.6 | 8.0 ± 0.7 | 9.0 ± 0.6 |  | 
CC(C)CC(=O)O[C@H](CC(=O)[O-])C[N+](C)(C)C [VC, isovaleryl L-carnitine] | 6.0 | 10.0* sec. | 6.0 s | 16.6 ± 2.1 | 480 ± 99 | 7.2 ± 0.5 | 9.5 ± 0.5 | 8.8 ± 0.5 |  | 
CC(C)CC(=O)O[C@H](CC(=O)OCCCC(=O)[O-])C[N+](C)(C)C [VCGB, isovaleryl L-carnitine gamma-hydroxybutyrate] | 6.5 | 14.0* sec. | 10.0* sec. | 12.3 ± 0.6 | 564 ± 69 | 6.3 ± 0.5 | 6.8 ± 0.4 | 6.3 ± 0.5 | reduce habituation to morphine-induced analgesia to an appreciable extent | very long-lasting action in reducing the number of self-administrations
CC(=O)OC(CC(=O)[O-])C[N+](C)(C)C [LAC, acetyl L-carnitine] | 6.0 | 10.0* sec. | 6.0 s | 18.6 ± 2.1 | 465 ± 99 | 7.0 ± 0.5 | 9.2 ± 0.5 | 8.9 ± 0.8 |  | 
